# Measurements as given in patent US9820483B2, “Microbial composition” (Rohm and Haas Company, priority 2011, dated 2017).
# Tests used:
# E. coli ATCC #10536 = experiment: Synergy test: high resolution MBC microtiter plate assay in phosphate buffer containing 35% dipropylene glycol, 15 seconds contact; type: cell-based, Escherichia coli; settings: for MBC of the component acting alone (QA or QB; Qa or Qb with the other component at 0): E. coli 10536, complete kill in 15 seconds, phosphate buffer with 35% DPG
# Source text: One measure of synergy is the industrially accepted method described by Kull, F. C.; Eisman. P. C.; Sylwestrowicz, H. D. and Mayer, R. L., in Applied Microbiology 9:538-541 (1961), using the ratio determined by the formula: Qa/QA÷Qb/QB=Synergy Index (“SI”) wherein: QA=concentration of compound A (first component) in percent, acting alone, which produced an end point (MBC of Compound A). […]=concentration of compound A in percent, in the mixture, which produced an end point. QB=concentration of compound B (second component) in percent, acting alone, which produced an end point (MBC of Compound B). Qb=concentration of compound B in percent, in the mixture, which produced an end point.
# When the sum of Qa/QA and Qb/QB is greater than one, antagonism is indicated. […] The lower the SI, the greater is the synergy shown by that particular mixture. The minimum biocidal concentration (MBC) of a microbicide is the lowest concentration tested under a specific set of conditions that provides complete kill of the tested microorganisms.
# Synergy tests were conducted using standard microtiter plate assays with phosphate buffer containing 35% dipropylene glycol (DPG). In this method, a wide range of combinations of chemicals was tested by conducting high resolution MBC assays of Component (A) in the presence of various concentrations of Component (B). High resolution MBCs were determined by adding varying amounts of microbicide to one column of a microtiter plate and doing subsequent ten-fold dilutions using an automated liquid handling system to obtain a series of closely spaced endpoints. The MBC plate was inoculated one column at a time with the test microorganism. An aliquot of the inoculated well was transferred at 15 seconds to a plate containing a neutralizing agent (D/E Neutralizing Broth), mixed and held for 5 minutes before being transferred to a growth plate containing trypticase soy broth (TSB). The TSB plate was incubated at 37° C. and read for the presence/absence of growth at 24 hours. The lowest level tested that provided complete kill (as evidenced by no growth in the microtitre plate) of the test organisms in 15 seconds is the minimum biocidal concentration (MBC).
# The synergy of the combinations of the present invention was determined against a bacterium, Esherichia coli (E. coli—ATCC #10536), at a concentration of approximately 1×10^8 bacteria per mL. This microorganism is representative of natural contaminants in many consumer and industrial applications.
# [1] = tested on: Escherichia coli (E. coli—ATCC #10536); experiment: Automated assessment of efficacy in model surfactant base (2.85% sodium cocoyl glycinate + 1.85% sodium lauroamphoacetate, pH 10), 15 seconds exposure, delta OD450/OD590 in D/E quench; type: cell-based
# Method: Solutions were prepared such that the concentrations of the surfactant components and test actives were 1.1× the final desired concentration in order to allow for dilution with the bacterial inoculum in the test. The solutions were manually adjusted to pH 10.0 by dropwise addition of sodium hydroxide solution, as measured with a pH meter at ambient temperature.
# Tests were conducted using standard microtiter plate assays using an automated liquid handling system. 270 μl of the surfactant test solution was pipetted into each well of the microtitre plate and 30 μl of the bacterial suspension was then added. After exactly 15 seconds of bacterial exposure, a 30 μl volume of bacterial cells was withdrawn and transferred to 270 μl of D/E quench solution. After 5 minutes in the D/E quench, the optical density (OD) was measured for each plate in turn at two specific wavelengths (450 nm and 590 nm). These provide a dual check of antimicrobial activity, as the OD450 reading is specific for the yellow colour of D/E quench when bacterial growth is observed, whereas OD590 is specific for the initial purple colour of the D/E quench which is retained if no bacterial growth is observed. After the time zero OD measurements, plates were then incubated at 37° C. overnight (16 hours) before repeating the OD measurements. Delta OD values were calculated by subtracting […]. Bacterial growth is observed as an increase in OD450 and a decrease in ΔOD590. To identify antibacterially efficacious systems (those preventing appreciable bacterial growth after incubation), the following threshold changes in OD readings have been adopted: if (1). OD450 increases by less than 0.2 absorbance unit on incubation and (2). OD590 decreases by less than 0.35 unit on incubation. Conversely, where OD450 increases by more than 0.2 AU and OD590 decreases by more than 0.35 unit after incubation, corresponding to a colour shift from purple to yellow, the test system allows bacterial growth and is not deemed efficacious. Four replicate measurements in the same plate have been made for each test system. The number of replicate wells showing either bacterial growth or no growth is also readily assessed by eye by following the colour change.
# Dose responses for individual components and binary mixtures of actives at a fixed concentration ratio were generated by sequential dilution of liquors with further surfactant solution to obtain a series of endpoints.
# In some selected cases, the combinations were also tested at the weight ratio 1:1.
# The method used was the same as in the above Table.
SMILES,MBC of the component acting alone (QA or QB; Qa or Qb with the other component at 0) (E. coli ATCC #10536) [weight %],No. of replicates showing growth (out of 4) ([1]; single active at 0.2% w/v),"Δ OD 590 nm = OD590 (time = 16 hours) − OD590 (time zero), Mean ([1]; single active at 0.2% w/v)","ΔOD 450 nm = OD450 (time = 16 hours) − OD450 (time zero), Mean ([1]; single active at 0.2% w/v)","Δ OD 590 nm = OD590 (time = 16 hours) − OD590 (time zero), Mean ([1]; single active at […] w/v)","ΔOD 450 nm = OD450 (time = 16 hours) − OD450 (time zero), Mean ([1]; single active at […] w/v)","Δ OD 590 nm = OD590 (time = 16 hours) − OD590 (time zero), Mean ([1]; single active at 0.1% w/v)",further results
CCCC(=O)OC(C)(C)C1CC=C(C)CC1 (centres unmarked) [2-(4-methylcyclohex-3-enyl)propan-2-yl butyrate],2.4,,,,,,,
Cc1ccc(C(C)C)cc1O [5-isopropyl-2-methylphenol],,4,0.62,−0.52,0.64,−0.52,,"SI (Synergy Index) (E. coli ATCC #10536): 1.00; No. of replicates showing growth (out of 4) ([1]; single active at 0.125% w/v): 4; Δ OD 590 nm = OD590 (time = 16 hours) − OD590 (time zero), Mean ([1]; single active at 0.125% w/v): 0.63; ΔOD 450 nm = OD450 (time = 16 hours) − OD450 (time zero), Mean ([1]; single active at 0.125% w/v): −0.50; No. of replicates showing growth (out of 4) ([1]; single active at […] w/v): 4"
CCC(C)c1ccc(O)cc1 (centres unmarked) [4-sec-butylphenol],0.2,4,0.59,−0.56,0.60,−0.53,,"Δ OD 590 nm = OD590 (time = 16 hours) − OD590 (time zero), Mean ([1]; single active at 0.125% w/v): 0.60; ΔOD 450 nm = OD450 (time = 16 hours) − OD450 (time zero), Mean ([1]; single active at 0.125% w/v): −0.56"
CCC1CCC(C(CO)CO)CC1 (centres unmarked),,,,,0.56,−0.54,,"No. of replicates showing growth (out of 4) ([1]; single active at 0.4% w/v): 4; Δ OD 590 nm = OD590 (time = 16 hours) − OD590 (time zero), Mean ([1]; single active at 0.4% w/v): 0.56; ΔOD 450 nm = OD450 (time = 16 hours) − OD450 (time zero), Mean ([1]; single active at 0.4% w/v): −0.49; No. of replicates showing growth (out of 4) ([1]; single active at 0.5% w/v): 4; Δ OD 590 nm = OD590 (time = 16 hours) − OD590 (time zero), Mean ([1]; single active at 0.5% w/v): 0.590; ΔOD 450 nm = OD450 (time = 16 hours) − OD450 (time zero), Mean ([1]; single active at 0.5% w/v): −0.48; No. of replicates showing growth (out of 4) ([1]; single active at […] w/v): 4"
"CC[C@H]1CC[C@H](C(CO)CO)CC1 [2-(trans-4-ethylcyclohexyl)propane-1,3-diol]",,,,,,,,"MBC ([1]; Escherichia coli, ATCC10536, 15 s, in 2.85% sodium cocoyl glycinate + 1.85% sodium lauroamphoacetate solution at pH 10, E. coli, read-out: MBC): > 2000 µg/mL"
Cc1cc(O)ccc1C(C)C [4-isopropyl-3-methylphenol],0.3,4,0.36,−1.41,,,0.24,"Δ OD 590 nm = OD590 (time = 16 hours) − OD590 (time zero), Mean ([1]; single active at 0.05% w/v): 0.25; ΔOD 450 nm = OD450 (time = 16 hours) − OD450 (time zero), Mean ([1]; single active at 0.05% w/v): −1.52; ΔOD 450 nm = OD450 (time = 16 hours) − OD450 (time zero), Mean ([1]; single active at 0.1% w/v): −1.50"
CCCc1ccc(O)cc1 [4-propylphenol],,,0.43,−1.49,,,0.34,
CC(C)(C)c1cccc(O)c1 [3-tert-butylphenol],0.3,,0.64,−0.47,,,,"Δ OD 590 nm = OD590 (time = 16 hours) − OD590 (time zero), Mean ([1]; single active at 0.125% w/v): 0.65; ΔOD 450 nm = OD450 (time = 16 hours) − OD450 (time zero), Mean ([1]; single active at 0.125% w/v): −0.45"
"C=C(C)[C@@H]1CC[C@@H](C)C[C@H]1O [(1R,2S,5R)-5-methyl-2-(prop-1-en-2-yl)cyclohexanol]",0.5,,,,,,,
CCCc1cccc(O)c1 [3-n-propylphenol],,4,0.56,−0.57,0.56,−0.63,,"No. of replicates showing growth (out of 4) ([1]; single active at 0.125% w/v): 4; Δ OD 590 nm = OD590 (time = 16 hours) − OD590 (time zero), Mean ([1]; single active at 0.125% w/v): 0.57; ΔOD 450 nm = OD450 (time = 16 hours) − OD450 (time zero), Mean ([1]; single active at 0.125% w/v): −0.59"
"CCCC1CCC(C(CO)CO)CC1 [2-((1S,4R)-4-propylcyclohexyl)propane-1,3-diol]",2.5,,,,,,,
CC(C)(C)c1ccccc1O [2-tert-butylphenol],,0,0.07,−0.04,,,0.23,"Δ OD 590 nm = OD590 (time = 16 hours) − OD590 (time zero), Mean ([1]; single active at 0.05% w/v): 0.22; No. of replicates showing growth (out of 4) ([1]; single active at 0.1% w/v): 4; ΔOD 450 nm = OD450 (time = 16 hours) − OD450 (time zero), Mean ([1]; single active at 0.1% w/v): −1.55; Δ OD 590 nm = OD590 (time = 16 hours) − OD590 (time zero), Mean ([1]; single active at 0.125% w/v): 0.30"
"CC(=O)O[C@H]1C[C@H](C)CC[C@H]1C(C)C [(1S,2S,5R)-2-isopropyl-5-methylcyclohexyl acetate]",2.4,,,,,,,
C/C=C/c1ccccc1O [(E)-2-(prop-1-enyl)phenol],,4,0.63,−0.53,0.58,−0.57,0.59,"No. of replicates showing growth (out of 4) ([1]; single active at 0.1% w/v): 4; ΔOD 450 nm = OD450 (time = 16 hours) − OD450 (time zero), Mean ([1]; single active at 0.1% w/v): −0.60; No. of replicates showing growth (out of 4) ([1]; single active at […] w/v): 4"
CCCCc1ccc(O)cc1 [4-n-butylphenol],,,0.58,−0.54,0.54,−0.61,0.53,"ΔOD 450 nm = OD450 (time = 16 hours) − OD450 (time zero), Mean ([1]; single active at 0.1% w/v): −0.61"
CCC(C)c1ccccc1O (centres unmarked) [2-sec-butylphenol],0.3,,,,0.50,−0.41,0.36,"Δ OD 590 nm = OD590 (time = 16 hours) − OD590 (time zero), Mean ([1]; single active at 0.05% w/v): 0.30; ΔOD 450 nm = OD450 (time = 16 hours) − OD450 (time zero), Mean ([1]; single active at 0.05% w/v): −1.50"
Cc1cc(O)cc(C(C)C)c1 [3-isopropyl-5-methylphenol],0.3,,,,,,,
